Results taken from BindingDB's records for doi:10.1016/j.bmcl.2012.03.106 (Syngenta Crop Protection Muenchwilen, 2012).
pIC50: −log10 of the molar value.

Assay: Displacement of [3H]-Tritium-N-(4-chloro-2-methyl-6-(methylcarbamoyl)phenyl)-1-(3-chloropyridin-2-yl)-3-(trifluoromethyl)-1H-pyrazole-5-carboxamide from Myzus persicae (green peach aphid) ryanodine receptor
Work on `Cc1cc(C#N)cc(C(=O)NC(C)(C)CS(C)(=N)=O)c1NC(=O)c1cc(Br)nn1-c1ncccc1Cl` (stereo unspecified) yielded a pIC50 of 4.73. Work on `CNC(=O)c1cc(Cl)cc(C)c1NC(=O)c1cc(Br)nn1-c1ncccc1Cl` [3-bromo-N-(4-chloro-2-methyl-6-(methylcarbamoyl)phenyl)-1-(3-chloropyridin-2-yl)-1H-pyrazole-5-carboxamide] yielded a pIC50 of 5.38. With `Cc1cc(Cl)cc(C(=O)NC(C)(C)CS(C)(=O)=NC#N)c1NC(=O)c1cc(C(F)(F)F)nn1-c1ncccc1Cl` (stereo unspecified) the pIC50 was 5.31. With `Cc1cc(C(F)(C(F)(F)F)C(F)(F)F)ccc1NC(=O)c1cccc(I)c1C(=O)NC(C)(C)CS(C)(=O)=O` [CHEBI:38798] the pIC50 was 4.08. Compound `CNC(=O)c1cc(C#N)cc(C)c1NC(=O)c1cc(Br)nn1-c1ncccc1Cl` [CYANTRANILIPROLE] has a pIC50 of 5.68. `Cc1cc(C#N)cc(C(=O)NC(C)(C)CS(C)(=O)=NC#N)c1NC(=O)c1cc(Br)nn1-c1ncccc1Cl` (stereo unspecified) gave a pIC50 of 5.09.
